B1: Streptolysin O (natural protein, UniProt P0C0I3 78-571, looked up)
chain: LAPKEMPLESAEKEEKKSEDKKKSEEDHTEEINDKIYSLNYNELEVLAKNGETIENFVPKEGVKKADKFIVIERKKKNINTTPVDISIIDSVTDRTYPAALQLANKGFTENKPDAVVTKRNPQKIHIDLPGMGDKATVEVNDPTYANVSTAIDNLVNQWHDNYSGGNTLPARTQYTESMVYSKSQIEAALNVNSKILDGTLGIDFKSISKGEKKVMIAAYKQIFYTVSANLPNNPADVFDKSVTFKELQRKGVSNEAPPLFVSNVAYGRTVFVKLETSSKSNDVEAAFSAALKGTDVKTNGKYSDILENSSFTAVVLGGDAAEHNKVVTKDFDVIRNVIKDNATFSRKNPAYPISYTSVFLKNNKIAGVNNRTEYVETTSTEYTSGKINLSHQGAYVAQYEILWDEINYDDKGKEVITKRRWDNNWYSKTSPFSTVIPLGANSRNIRIMARECTGLAWEWWRKVIDERDVKLSKEINVNISGSTLSPYGSITYK
notes: Streptolysin O of Group A Streptococcus (Streptococcus pyogenes), amplified from DNA of GAS strain M1; After the BamHI site the forward primer encodes LAPKEMP; The reverse primer runs to the natural stop codon (...YGSITYK-stop); Surmise: cloning into the BamHI/SacI sites of pET28a with the gene's own stop codon would give an N-terminal His6-thrombin site-T7 tag leader; also called SLO; SLO protein

Assays:
SLY (Suilysin) = SLY (Suilysin) (Streptococcus suis, UniProt Q55996); experiment: biochemical
SLY (Suilysin), sequence (Q55996 28-497 limits assumed): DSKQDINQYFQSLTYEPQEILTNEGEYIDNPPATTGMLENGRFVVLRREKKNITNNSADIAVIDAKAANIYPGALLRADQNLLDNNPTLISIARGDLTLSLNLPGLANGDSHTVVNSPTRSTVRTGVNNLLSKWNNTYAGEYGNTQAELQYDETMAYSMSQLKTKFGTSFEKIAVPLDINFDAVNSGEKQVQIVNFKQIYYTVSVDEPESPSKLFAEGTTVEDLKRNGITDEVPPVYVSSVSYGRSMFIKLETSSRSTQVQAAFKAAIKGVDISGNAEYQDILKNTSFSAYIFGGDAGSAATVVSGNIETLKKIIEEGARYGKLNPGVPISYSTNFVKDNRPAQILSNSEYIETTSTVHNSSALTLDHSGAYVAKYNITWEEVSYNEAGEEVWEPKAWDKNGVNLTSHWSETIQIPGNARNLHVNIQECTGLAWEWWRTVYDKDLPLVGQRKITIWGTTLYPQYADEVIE

[1] = target: the molecule itself; experiment: SDS-PAGE without beta-mercaptoethanol + Western blot of oligomers; purified SLO incubated with or without luteolin at different concentrations, 37°C for 30 min; then 40°C for 10 min in 1x SDS-PAGE loading buffer without β-ME; blot with rabbit polyclonal anti-Streptolysin O; oligomer/monomer ratio by densitometry

Molecule | Kd (SLY (Suilysin)) [nM] | binding result [1]
O=c1cc(-c2ccc(O)c(O)c2)oc2cc(O)cc(O)c12 [Luteolin] | 554 | –
B1 | – | binds

Source: publication PMC9300923 (Frontiers in Pharmacology, 2022)
